Results from publication PMC5225203, “Multiparameter toxicity assessment of novel DOPO-derived organophosphorus flame retardants” (Archives of Toxicology, 2016).

Columns and labels:
[1] = tested on: differentiated LUHMES cells; type: cell-based, human; details: positive control
Experimental: Suppl. Fig. 10. Migration of mitochondria in neurites. Mitochondrial migration was detected in fully differentiated (day 6 of differentiation, DoD6) mixed LUHMES cultures consisting of 3% eGFP/mito-tRFP-overexpressing LUHMES in 97% unlabeled LUHMES in order to allow tracking of mitochondria in single neurites in an environment of normal LUHMES cell density (Schildknecht et al. 2013, ALTEX 30(4):427-444). Single cell time lapse imaging was performed for a period of 90 s in intervals of 3 s with a Zeiss LSM 780 inverted fluorescence microscope YOKOGAWA CSU-XI spinning disk system using an EVOLVE camera (Carl Zeiss Group, Oberkochen, Germany) equipped with a 5% CO2 /37°C controlled chamber and a 40 x 1.3 NA oil objective. For image analysis, kymographs (graphical representation of spatial position over time) based on the data obtained from single cell time lapse experiments were created using ImageJ Software (NIH, Bethesda, USA). The neurite was manually defined by the segmented line tool. To calculate mitochondrial velocity, diagonal lines were drawn for each moving mitochondrium in the kymograph and analysed by calculating the slope with the macro-plugin Kymo Line ROI, generated by Felix Schöneberger, Bioimaging Center (BIC), University of Konstanz, Germany.
(1 picture or pasted object on this page, not shown here)

[2] = tested on: 3D epidermal in vitro model generated from primary human keratinocytes; experiment: 3D epidermal in vitro model; type: cell-based; details: positive control, 5 %, 15 min
Experimental: Human primary keratinocytes (PR3D-HPEK-50, CELLnTEC, Switzerland) were grown in flasks in proliferation medium (CNT-PR, CELLnTEC) until subconfluency was reached, after which the cells were seeded into transwell inserts containing polycarbonate membranes with a pore size of 0.4 µm at a density of 3.3 × 10^5 cells/cm^2 and grown for 3 days in CNT-PR until confluency was reached. Differentiation was initiated by the addition of 3D barrier medium (CNT-PR-3D, CELLnTEC) for 18 h to allow development of cell-to-cell adhesion structures. 3D growth and differentiation were induced by complete removal of medium from the upper transwell compartment and replacement of the CNT-PR-3D differentiation medium in the lower compartment. Cells were allowed to differentiate for 11 days with 3 medium changes per week in the lower compartment and direct cell-to-air contact in the top compartment. Flame retardants were suspended at a concentration of 200 mM in PBS containing 5 % DMSO, after which 100 µL of each test compound was applied on top of the epithelial barrier model. […] Cell viability of the epidermal models was assessed by measuring the reduction of resazurin to resorufin (PrestoBlue® Assay). Cell viability values (fluorescence signals) were normalized to the epidermal model thickness. […] Samples were mounted with DPX mounting medium (Sigma-Aldrich) and analyzed by microscopy (Olympus IX 81).

[3] = tested on: ARE-dependent luciferase expression in KeratinoSens cells; experiment: KeratinoSens skin sensitization assay; type: cell-based; details: positive control
Experimental: Generation of the stable KeratinoSens™ cell line was previously described in detail (Emter et al. [2010]). KeratinoSens™ cells were maintained in DMEM containing glutamax (Gibco/Invitrogen), 9 % FCS, and 0.5 mg/mL G418. For the experiments, KeratinoSens™ cells were seeded onto 96-well plates at a density of 10,000 cells per well in 125 µL medium without G418. After 24 h, the medium was replaced with 200 µL DMEM containing 1 % FCS and the test compounds. After a 2-day incubation period at 37 °C in an atmosphere containing 5 % CO2, the cells were washed once with PBS and a resazurin reduction assay (PrestoBlue®) was carried out in order to compare the viability of the differently treated groups. Fluorescence intensity was measured at 550 nmex and 590 nmem. After another washing step with PBS, cell lysis was performed using 20 µL/well passive lysis buffer (Promega) for 20 min at room temperature. Luciferase activity was measured by applying 50 µL luciferase substrate automatically to each well and detecting the resulting luminescence. Compounds were considered as skin sensitizers when a statistically significant induction of luciferase activity above a defined threshold of ≥1.5 in the absence of impaired cell viability was observed (Emter et al. [2010]; Natsch et al. [2011]).

## C[n+]1ccc(-c2ccccc2)cc1 [MPP^+, reference compound]
[1]
  velocity of mitochondrial migration in neurites: significant decline

## CCCCCCCCCCCCOS(=O)(=O)[O-].[Na+] [SDS, sodium dodecyl sulfate]
[2]
  influence on the architecture of the epidermis: complete disintegration of the stratum corneum and substantial cell death in the stratum spinosum

## CC(=O)C=Cc1ccccc1 [benzylidene acetone, reference compound]
[3]
  concentration at which luciferase increase is associated with cell death: > 10 µM
